# Measured values from patent US8809368B2, “Compounds affecting gap junction activity” (Kansas State University Research Foundation, priority 2006, dated 2014).
# “And” between values parts separate entries of the source, which are not always exact repeats. Equal values may be shown once.
# How the values were obtained:
# [1] = tested on: T47D human breast cancer cells; assay: Soft agar colony growth, T47D cells; format: cell-based; details: for effect on breast cancer cell colony growth: Table 2
# Protocol: Base agar plates were prepared containing 0.8% agar and 0.4% agar in Ham's F12. Cells (5×10^4 cells/33 mm^2 well) were suspended in 100 μl of Ham's F12 with 0.4% agar and plated. These plates were maintained at 37° C. for 7 days and examined for the presence of colonies. Individual colonies of 50 μm or greater were examined. T47D cells were treated with 1, 10 and 100 nM PQ1 and SA (succinic acid) as a solvent control. Individual colonies of 50 μm or greater were examined. Statistical significance, *p<0.05, of at least three experiments
# FIG. 3(A) MDA-MB-453 and (B) T47D human breast cancer cells were treated with 10 μM of various quinolines for 7 days. Base agar plates were prepared containing 0.8% agar and 0.4% agar in Ham's F12. Cells (5×10^4 cells/33 mm well) were suspended in 100 μl of Ham's F12 with 0.4% agar and plated. These plates were maintained at 37° C. for 7 days and examined for the presence of colonies. Individual colonies of 40 μm or greater were examined. […] However, PQ3 caused a 2.3-fold increase in colony growth in MDA-MB-453 cells and PQ2 caused a 2.6-fold increase in T47D colony growth compared to DMSO. FIGS. 7 and 8 show MDA-MB-453 and T47D colony growth for various concentrations of PQ1 and SA tested for 7 days. The procedures are generally as described above. The cell colony growth decreased using 10 and 100 nM PQ1 for both cell types.
# (§1) Colony Growth Assay: T47D human breast cancer cells were treated with PQ1. Base agar plates were prepared containing 0.8% agar and 0.4% agar in Ham's F12. Cells (5×10^4 cells/33 mm2 well) were suspended in 100 μl of Ham's F12 with 0.4% agar and plated. These plates were maintained at 37° C. for 7 days and examined for the presence of colonies. Individual colonies of 40 um or greater were examined.
# Various oncogenes (e.g. ras, raf, neu, src, mos) down-regulate GJIC while several tumor suppressor genes can up-regulate GJIC. […] Cells were grown in soft agar to assess their capacity for anchorage-independent growth, which is a key feature of cell transformation due to the importance of cell-cell and cell-matrix based tumor suppression. MEC and T47D cells were treated with 10, 100, 1000, and 10000 nM PQ1 for 7 days. A graphical presentation of three experiment results is presented in log scale of PQ1 concentration. […] A 100 nM PQ1 inhibits 66% of colony growth compared to controls, without PQ1 treatment or 100 nM succinic acid.
# as §1, with “Using Soft Agar. Cells” for “Assay: T47D human breast cancer cells”, “0, 10, 100, 200 and 500 nM PQ1 for 7 days.” for “PQ1.”, “mm^2” for “mm2”, “50 μm” for “40 um”
# [2] = tested on: MDA-MB-453 cells; assay: Gap junction activity (GJIC), flow cytometry of dye coupling, MDA-MB-453 cells; format: cell-based, human; details: for effect on gap junction intercellular communication: Table 1
# Protocol: FIG. 4(A) MDA-MB-453 and (B) T47D cells were treated with low (500 nM) and high (10 μM) concentrations of PQs for 24 hours. Monolayers of acceptor cell population were grown on 25-cm flasks in the presence of Vibrant DiD. Vybrant DiD in acceptor cells is not able to pass through the gap junctions because of its hydrophobic property. Single cell suspensions of donor treated cells were prepared, labeled with 0.05 μg/ml calcein-AM, incubated at 37 C for 5 minutes. Quantification of dye coupling between the donor and acceptor cells was assessed by dual-excitation flow cytometry. […] Cells treated with 10 μM PQ3 have approximately 40-50% decrease in gap junction activity compared control or DMSO.
# [3] = tested on: SW620 colon cancer cells; assay: Gap junction activity, SW620 colon cancer cells; format: cell-based
# Protocol: However, PQ3 has an opposite effect on mammary cancer cell lines. […] A summary of PQ-mediated GJIC activity and colony growth in breast and colon cancer cells is presented in Tables 1, 2, and 3, as well as FIGS. 10-13. In FIG. 10, SW620 cells were dosed for 24 hours with PQ1 at 100, 200, 300, and 500 nM. The gap junction activity was measured as a percent of control, as previously described. It was seen that all concentrations on PQ1 increased the gap junction activity in SW620 colon cancer cells as compared to the control. In FIG. 11, the effect of PQ1 on the expression of PKCγ was studied at concentrations of 100, 200, 300 and 500 nM PQ1 for 24 hours. It is seen in FIG. 11 that PQ1 has no effect on the expression of PKCγ at the levels tested. In FIGS. 12 and 13, the effect of PQ1 on the colony growth of SW620 colon cancer cells was measured with 1-100 nM PQ1 (FIG. 12) and 10 uM PQ1 (FIG. 13).
SMILES,"colony growth attenuation ([1]; 10 μM, 7 days, compared to control)","colony growth compared to control ([1]; 10, 100, 1000 and 10000 nM, 7 days)","cell colony growth ([1]; 10 and 100 nM, 7 days)","inhibition at 0.1 µM ([1]; Homo sapiens, 168 h, 100 nM, 7 days, compared to controls)",effect on breast cancer cell colony growth [1],"increase of gap junction activity ([2]; MDA-MB-453, 500 nM, 24 hours, compared to control)","increase in GJIC ([2]; MDA-MB-453, FIG. 4, 24 hours)","effect on gap junction intercellular communication ([2]; MDA-MB-453, 500 nM)","gap junction activity as compared to the control ([3]; 100, 200, 300 and 500 nM, 24 hours)","effect on gap junction intercellular communication ([3]; Table 3, 300 nM)","effect on colony growth ([1]; 10 μM, 7 days)","decrease in gap junction activity (GJIC) ([2]; 10 μM, 24 hours, compared to control or DMSO)","effect on gap junction intercellular communication ([2]; MDA-MB-453, concentration not given)","effect on gap junction intercellular communication ([3]; Table 3, 500 nM)"
"COc1cc(NCCCN)c2nccc(C)c2c1Oc1cccc(C(F)(F)F)c1.O=C(O)CCC(=O)O [PQ1, 6-Methoxy-8-[(3-aminopropyl)amino]-4-methyl-5-(3-trifluoromethylphenyloxy) quinoline succinic acid]",80-95%,significant inhibition,decreased,66%,Decrease,1.5 fold,20-50%,Increase,increased,Increase,,,,
"COc1cc(N)c2nccc(C)c2c1Oc1cccc(C(F)(F)F)c1 [PQ3, 8-Amino-6-methoxy-4-methyl-5-(3-trifluoromethylphenyloxy)quinoline]",,,,,Decrease,,,,,,inhibitory effect,40-50% and 50%,Decrease,Increase
